The text below walks through data of US20230130103A1, “TARGETED PHARMACOLOGICAL THERAPEUTICS IN UVEAL MELANOMA” (Washington University, priority 2017, published 2023).

Starred links: 1 amine or outer side, 2 acyl side, 3 side chain; linkers in the order of their positions; H or OH if unused. Positions of bridges follow the written chain, without caps; N, C: chain ends. Non-standard residues stand in square brackets, D forms with d. Residues, ends and D or L forms follow the SMILES beside them. *: point of attachment. Leu(3R-OH,Nα-propionyl) = CCC(=O)N[C@H](C(=O)*)[C@H](O)C(C)C; X1 = CC(C)[C@@H](O[*:3])[C@H](N[*:1])C(=O)[*:2]; X2 = CC(C)[C@H](O[*:3])[C@@H](N[*:1])C(=O)[*:2]; NMeaThr = CN[C@H](C(=O)O)[C@H](C)O; dPhLac = O=C(O)[C@H](O)Cc1ccccc1; NMeA = CN[C@@H](C)C(=O)O; NMeDha = C=C(NC)C(=O)O

For this assay, the system named is Gαi/q(R54K). The experiment in a line: In vitro nucleotide exchange (BODIPY-GTPγS fluorescence). The format is biochemical. Particulars: Gαi/q(R54K) vs Gαi/q.

As for `C=C1C(=O)N[C@@H](C)C(=O)N(C)[C@@H](C)C(=O)N[C@H]([C@@H](OC(=O)[C@@H](NC(=O)CC)[C@H](O)C(C)C)C(C)C)C(=O)N(C)[C@@H]([C@H](C)OC)C(=O)O[C@H](C(C)C)[C@H](NC(C)=O)C(=O)O[C@H](Cc2ccccc2)C(=O)N1C` [FR, [(1S)-1-[(3S,6R,9S,12S,18R,21S,22R)-21-acetamido-18-benzyl-3-[(1S)-1-methoxyethyl]-4,9,10,12,16-pentamethyl-15-methylidene-2,5,8,11,14,17,20-heptaoxo-22-propan-2-yl-1,19-dioxa-4,7,10,13,16-pentazacyclodocos-6-yl]-2-methylpropyl] (2S,3R)-3-hydroxy-4-methyl-2-(propanoylamino)pentanoate] (Ac-[X1][dPhLac][NMeDha]A[NMeA][X2](Leu(3R-OH,Nα-propionyl))[NMeaThr](Me); ester 1-C), the “fold less potent than toward Gαi/q, nucleotide exchange” value is recorded as ~10 fold.
